According to US12194230B2, “Methods, devices and systems for pulmonary delivery of active agents” (priority 2014, dated 2025):
“And” between values parts separate entries of the source, which are not always exact repeats. Identical values can stand only once. Like-named read-outs stand apart in the source and are kept apart here.

What was measured:
[1] = PK/PD study: plasma Δ^9-THC levels after single-dose inhalation of Cannabis flos with the metered-dose inhaler
[2] = test system: patients suffering from neuropathic pain; test: Adverse effects, blood pressure and heart rate after single-dose inhalation (PK/PD study); type: in vivo, human; conditions: for heart rate: baseline 71±12, P=0.873; for mean diastolic blood pressure: baseline 82±9, P=0.410; for mean systolic blood pressure: baseline 133±13, P=0.068; for adverse effects (overall): single inhalation, 8 patients
Experimental: (§1) Pain intensity reduction was assessed as a therapeutic effect by asking participants to indicate the intensity of their current pain on a 100 mm visual analog scale (VAS) between 0 (no pain) and 100 (worst possible pain) at baseline (prior to the inhalation) and at 20 and 90 minutes following the pulmonary delivery of the pharmaceutically active agent from cannabis. Adverse effects, in the form of psychotropic symptoms, were recorded at 5, 15, 30, 60 and 120 minutes post pulmonary delivery, along with those spontaneously reported by the participants. Adverse effects were evaluated according to standardized criteria in terms of severity, frequency, duration and relationship to the study's active agent. Adverse effects were graded using the NIH Division of AIDS table for scoring severity of adult adverse experiences. Blood pressure and pulse rate were also recorded before, during and after the pulmonary delivery.
(§2) Results are reported herein as mean values±1 standard deviation (±SD). For each one of the measured effects (VAS pain intensity, systolic and diastolic blood pressure, heart rate and satisfaction score), the mean and 95% confidence interval (CI) at different time points was plotted. Differences between VAS pain intensity values and satisfaction scores, before and after inhalation, were tested by two-tailed paired Student t-test. Blood pressure and heart rate values were compared among different time points by one-way ANOVA. P-values<0.05 were accepted as significant. All statistical analyses were performed using Minitab Statistical Software, version 16.

[3] = cited from earlier work; for mean Cmax increase per mg Δ^9-THC: Huestis et al.
[4] = test system: patients suffering from neuropathic pain; test: VAS pain intensity after single-dose inhalation (PK/PD study); type: in vivo, human
Experimental: The study was used to further evaluate the pharmacodynamic effect of pulmonary delivery of Δ^9-THC on pain reduction from baseline using a 10 cm visual analog scale (VAS) pain scale (0 being no pain; and 10 being worst possible pain); for monitoring adverse effects, blood pressure and heart rate, and for estimating the degree of satisfaction with the use of the MDI on a 0-10 scale.
as §1, §2

[5] = test system: patients suffering from chronic neuropathic pain; conditions: cited from earlier work; for reduction of pain intensity: vaporized 10.3 mg total available Δ^9-THC in two sessions
[6] = single inhalation, 3.08±0.02 mg total available Δ^9-THC

CCCCCc1cc(O)c2c(c1)OC(C)(C)[C@@H]1CCC(C)=C[C@@H]21 [Δ^9-THC, Δ9-tetrahydrocannabinol]
inter-individual variability (CV) of peak plasma THC concentration (Cmax) ([1]; MDI device): 25.3% | increase of Cmax per mg of THC available in the cannabis used (mean) ([1]; pulmonary delivery with the MDI device): 12.3 ng/mL/mg | time of first detection in blood sample post-inhalation ([1]; six patients without residual plasma THC at baseline): 1 min | heart rate ([2]; 30 minutes post-inhalation): 72±11 bpm | mean diastolic blood pressure ([2]; 30 minutes post-inhalation): 75±10 mm Hg | mean systolic blood pressure ([2]; 30 minutes post-inhalation): 122±10 mm Hg | heart rate ([2]; 90 minutes post-inhalation): 69±13 bpm | mean diastolic blood pressure ([2]; 90 minutes post-inhalation): 81±12 mm Hg | mean systolic blood pressure ([2]; 90 minutes post-inhalation): 121±11 mm Hg | time to full recovery from light headedness ([2]; all the other patients): ≤ 30 min | patients experiencing light headedness ([2]; first 10 minutes following inhalation, seven of eight patients): 87.5% | adverse effects (overall) [2]: minimal, reversible and well tolerated | adverse effects (overall) ([2]; listed as THC): minimal, reversible and receded rapidly | time to full recovery from light headedness ([2]; three patients): ≤ 15 min | increase of Cmax per mg of THC ([3]; Volcano vaporizer, Abrams et al. 2007, 2011): 6.1 to 9.0 ng/mL/mg | mean Cmax increase per mg Δ^9-THC ([3]; after the first puff of a 1.75% Δ^9-THC cigarette): 3.54 ng/ml per mg | mean Cmax increase per mg Δ^9-THC ([3]; after the first puff of a 3.55% Δ^9-THC cigarette): 4.28 ng/ml per mg | plasma Cmax per mg of Δ^9-THC administered ([3]; intravenous administration, D'Souza et al. 2004): 32.8 ng Δ^9-THC/ml plasma and 23.8 ng Δ^9-THC/ml plasma | inter-individual variability (CV) of Cmax ([3]; oral administration): 42-115% | inter-individual variability (CV) of Cmax ([3]; oromucosal route of delivery): 59-67% | increase of Cmax per mg of THC ([3]; regular smoking cigarettes, Ohlsson, Hunault, Huestis): 0.6 to 4.6 ng/mL/mg | inter-individual variability (CV) of Cmax ([3]; smoking cigarettes): 32-115% | time of peak plasma concentrations ([3]; smoking products of cannabis): 1 to 3 min | bioavailability ([3]; smoking route, listed as THC): 2-56% and 2 to 56% | first onset of effects ([3]; smoking): about 7 minutes | inter-individual variability (CV) of Cmax ([3]; vaporizer): 47-85% | decrease of VAS pain intensity from baseline (difference) ([4]; 20 minutes after inhalation, baseline 7.5±1.4, 95% CI 2.1-4.9, P=0.001): 3.4 points | VAS pain intensity versus baseline ([4]; 90 minutes post-dosing): virtually identical results as at baseline | reduction of pain intensity [4, 6]: 45% | time within which the pain reduction reversed [4, 6]: ≤ 90 min | mean Cmax elevation ([5]; Ware et al. 2010, single smoke inhalation of 25±1 mg cannabis with 9.4% Δ^9-THC (2.35 mg), three times a day for 5 days): 45 ng/mL | decrease in average daily pain intensity ([5]; Ware et al. 2010, single smoke inhalation of 25±1 mg cannabis with 9.4% Δ^9-THC, three times a day for 5 days, compared to placebo): 11.4% | reduction of neuropathic pain (plateau, ceiling effect) ([5]; Wilsey et al. 2008, smoking 19 mg or 34 mg total available Δ^9-THC divided to 3 doses): 45% | analgesic response compared with the 10.3 mg dose ([5]; Wilsey et al. 2013, THC dose increased to 28.2 mg): equianalgesic response | reduction of pain intensity ([5]; Wilsey et al. 2013, 3 hours): 31% | reduction of pain intensity ([5]; Wilsey et al. 2013, 5 hours): 25%

CCCCCc1cc(O)c2c(c1)OC(C)(C)[C@@H]1CCC(CO)=C[C@@H]21 [11-OH-THC, 11-hydroxy Δ^9-THC]
plasma levels of the active metabolite ([1]; blood sampling 0-120 minutes after inhalation): No measurable plasma levels
